The compounds below were run against T1, human ferroportin (Homo sapiens, UniProt Q9NP59) (assay: Biological in-vitro ferroportin internalization assay (luciferase reporter)). Conditions: average pEC50; stably-transfected CHO cell line expressing human ferroportin tagged to a luciferase reporter; 6 h incubation with test compound.
T1 construct: luciferase reporter (read with the Nano-Glo Luciferase Assay System); expressed in transfected cells; host or cells: CHO cells, stably transfected, expression induced with doxycycline
T1 sequence (Q9NP59 1-571): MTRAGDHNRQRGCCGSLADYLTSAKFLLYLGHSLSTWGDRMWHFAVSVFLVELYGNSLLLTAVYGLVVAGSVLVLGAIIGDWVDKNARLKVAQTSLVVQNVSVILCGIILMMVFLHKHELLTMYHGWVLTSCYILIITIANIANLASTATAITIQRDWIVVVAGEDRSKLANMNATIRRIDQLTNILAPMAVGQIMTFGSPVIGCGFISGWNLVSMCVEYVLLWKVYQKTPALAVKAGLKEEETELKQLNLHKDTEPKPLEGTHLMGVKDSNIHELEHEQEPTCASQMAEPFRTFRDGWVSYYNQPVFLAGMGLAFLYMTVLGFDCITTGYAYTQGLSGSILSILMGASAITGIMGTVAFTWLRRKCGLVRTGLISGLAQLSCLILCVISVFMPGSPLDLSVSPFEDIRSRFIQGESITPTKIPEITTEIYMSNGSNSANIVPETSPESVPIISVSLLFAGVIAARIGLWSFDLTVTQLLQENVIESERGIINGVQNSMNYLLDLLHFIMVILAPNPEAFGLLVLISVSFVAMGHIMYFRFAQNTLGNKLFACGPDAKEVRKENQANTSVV
Format: cell-based
How it was run: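 Read-out is Nano-Glo luciferase signal after 6 h compound exposure, with average pEC50 derived. Cells are a stable CHO line carrying luciferase-tagged human ferroportin, pre-loaded 24 h with ferric ammonium citrate and doxycycline-induced for 24 h.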

Structure (SMILES)	pEC50
CCC(O)(CC)COc1ccnc(-c2nc3c(c(N(C)CC(=O)NC(C)(C)C)n2)CCC3)c1 [Compound 395, N-tert-butyl-2-({2-[4-(2-ethyl-2-hydroxybutoxy)pyridin-2-yl]-5H,6H,7H-cyclopenta[d]pyrimidin-4-yl}(methyl)amino)acetamide]	8.4
CC(C)(C)NC(=O)CNc1cc(-c2ccccn2)nc2c1CCC2 [Compound 9, N-tert-butyl-2-{[2-(pyridin-2-yl)-5H,6H,7H-cyclopenta[b]pyridin-4-yl]amino}acetamide]	6.2
CN(CC(=O)Nc1ccn(C)n1)c1nc(-c2cc3cn[nH]c3cn2)nc2c1CCC2 [Compound 232, 2-[methyl(2-{1H-pyrazolo[3,4-c]pyridin-5-yl}-5H,6H,7H-cyclopenta[d]pyrimidin-4-yl)amino]-N-(1-methyl-1H-pyrazol-3-yl)acetamide]	7
Cc1ccnc(-c2nc3c(c(N4CCCO[C@@H]5CCC[C@@H]54)n2)CCC3)c1 [Compound 49, 2-{4-[(5aS,8aR)-octahydro-2H-cyclopenta[b][1,4]oxazepin-5-yl]-5H,6H,7H-cyclopenta[d]pyrimidin-2-yl}-4-methylpyridine]	7.1
COc1ccnc(-c2nc3c(c(N(C)CC(=O)NC4(C(F)(F)F)CC4)n2)CCC3)c1 [Compound 99, 2-{[2-(4-methoxypyridin-2-yl)-5H,6H,7H-cyclopenta[d]pyrimidin-4-yl](methyl)amino}-N-[1-(trifluoromethyl)cyclopropyl]acetamide]	7.3
CN(c1nc(-c2ccccn2)nc2c1CCC2)[C@H]1CCN(C2(C)CCCC2)C1=O [Compound 207, (3S)-3-{methyl[2-(pyridin-2-yl)-5H,6H,7H-cyclopenta[d]pyrimidin-4-yl]amino}-1-(1-methylcyclopentyl)pyrrolidin-2-one]	7.2
CN(CC(=O)Nc1ccc(C(F)(F)F)nc1)c1nc(-c2cc3cn[nH]c3cn2)nc2c1CCC2 [Compound 288, 2-[methyl(2-{1H-pyrazolo[3,4-c]pyridin-5-yl}-5H,6H,7H-cyclopenta[d]pyrimidin-4-yl)amino]-N-[6-(trifluoromethyl)pyridin-3-yl]acetamide]	7.1
CN(c1nc(-c2ccccn2)nc2c1CCC2)[C@H](COC(C)(C)C)C(=O)NC(C)(C)C [Compound 121, (2R)-3-(tert-butoxy)-N-tert-butyl-2-{methyl[2-(pyridin-2-yl)-5H,6H,7H-cyclopenta[d]pyrimidin-4-yl]amino}propanamide]	7.9
Cn1cnc(-c2nc3c(c(N4CCCCCC4)n2)CCC3)c1 [Compound 97, 1-[2-(1-methyl-1H-imidazol-4-yl)-5H,6H,7H-cyclopenta[d]pyrimidin-4-yl]azepane]	7.1
Cc1ccc(NC(=O)CN(C)c2nc(-c3cc4ccccc4cn3)nc3c2CCC3)cn1 [Compound 222, 2-{[2-(isoquinolin-3-yl)-5H,6H,7H-cyclopenta[d]pyrimidin-4-yl](methyl)amino}-N-(6-methylpyridin-3-yl)acetamide]	7.2
Cc1cc(NC(=O)CN(C)c2nc(-c3cc(OCCO)ccn3)nc3c2CCC3)sn1 [Compound 350, 2-({2-[4-(2-hydroxyethoxy)pyridin-2-yl]-5H,6H,7H-cyclopenta[d]pyrimidin-4-yl}(methyl)amino)-N-(3-methyl-1,2-thiaozl-5-yl)acetamide]	7.7
CN(c1nc(-c2ccccn2)nc2c1CCC2)C1(C(=O)NC2CCCCC2)CC1 [Compound 17, N-cyclohexyl-1-{methyl[2-(pyridin-2-yl)-5H,6H,7H-cyclopenta[d]pyrimidin-4-yl]amino}cyclopropane-1-carboxamide]	6.6
COc1ccnc(-c2nc3c(c(N(C)CC(=O)N[C@@H]4CCOC4)n2)CCC3)c1 [Compound 372, 2-{[2-(4-methoxypyridin-2-yl)-5H,6H,7H-cyclopenta[d]pyrimidin-4-yl](methyl)amino}-N-[(3R)-oxolan-3-yl]acetamide]	7.5
CN(CC(=O)NC(C)(C)C)c1nc(-c2cc(OCC3CC3)ccn2)nc2c1CCC2 [Compound 159, N-tert-butyl-2-({2-[4-(cyclopropylmethoxy)pyridin-2-yl]-5H,6H,7H-cyclopenta[d]pyrimidin-4-yl}(methyl)amino)acetamide]	8.0
Cc1ccc(NC(=O)[C@@H](C)N(C)c2nc(-c3cc(OCCO)ccn3)nc3c2CCC3)cn1 [Compound 316, (2R)-2-({2-[4-(2-hydroxyethoxy)pyridin-2-yl]-5H,6H,7H-cyclopenta[d]pyrimidin-4-yl}(methyl)amino)-N-(6-methylpyridin-3-yl)propanamide]	7.8
COc1ccnc(-c2nc3c(c(N(C)CC(=O)NC(C)(C)CO)n2)CCC3)c1 [Compound 136, N-(1-hydroxy-2-methylpropan-2-yl)-2-{[2-(4-methoxypyridin-2-yl)-5H,6H,7H-cyclopenta[d]pyrimidin-4-yl](methyl)amino}acetamide]	7.7
Cc1cncc(NC(=O)CN(C)c2nc(-c3cc4ccccc4cn3)nc3c2CCC3)c1 [Compound 235, 2-{[2-(isoquinolin-3-yl)-5H,6H,7H-cyclopenta[d]pyrimidin-4-yl](methyl)amino}-N-(5-methylpyridin-3-yl)acetamide]	7.5
CN(CC(=O)NC1CCCCC1)c1nc(-c2ccccn2)nc2c1CCC2 [Compound 78, N-cyclohexyl-2-{methyl[2-(pyridin-2-yl)-5H,6H,7H-cyclopenta[d]pyrimidin-4-yl]amino}acetamide]	7.4
COc1ncc(NC(=O)CN(C)c2nc(-c3cc(OC(C)(C)CO)ccn3)nc3c2CCC3)cn1 [Compound 276, 2-[(2-{4-[(1-hydroxy-2-methylpropan-2-yl)oxy]pyridin-2-yl}-5H,6H,7H-cyclopenta[d]pyrimidin-4-yl)(methyl)amino]-N-(2-methoxypyrimidin-5-yl)acetamide]	7.7
CN(CC(=O)NC(C)(C)C)c1nc(-c2cc(OCC(C)(C)O)ccn2)nc2c1CCC2 [Compound 174, N-tert-butyl-2-({2-[4-(2-hydroxy-2-methylpropoxy)pyridin-2-yl]-5H,6H,7H-cyclopenta[d]pyrimidin-4-yl}(methyl)amino)acetamide]	8.2
CN(CC(=O)NC(C)(C)C)c1nc(-c2cc(OC(C)(C)CO)ccn2)nc2c1CCC2 [Compound 425, N-tert-butyl-2-[(2-{4-[(1-hydroxy-2-methylpropan-2-yl)oxy]pyridin-2-yl}-5H,6H,7H-cyclopenta[d]pyrimidin-4-yl)(methyl)amino]acetamide]	8.3
COc1ccc(NC(=O)CN(C)c2nc(-c3cc4ncccc4cn3)nc3c2CCC3)cn1 [Compound 257, N-(6-methoxypyridin-3-yl)-2-{methyl[2-(1,6-naphthyridin-7-yl)-5H,6H,7H-cyclopenta[d]pyrimidin-4-yl]amino}acetamide]	7
CN(CC(=O)NC(C)(C)CO)c1nc(-c2ccccn2)nc2c1CCC2 [Compound 61, N-(1-hydroxy-2-methylpropan-2-yl)-2-{methyl[2-(pyridin-2-yl)-5H,6H,7H-cyclopenta[d]pyrimidin-4-yl]amino}acetamide]	7.1
CN(CC(=O)NC(C)(C)C)c1nc(-c2ccc(F)cn2)nc2c1CCC2 [Compound 299, N-tert-butyl-2-{[2-(5-fluoropyridin-2-yl)-5H,6H,7H-cyclopenta[d]pyrimidin-4-yl](methyl)amino}acetamide]	6.1
CN(CC(=O)Nc1cnn(C)c1)c1nc(-c2cc(OC(F)F)ccn2)nc2c1CCC2 [Compound 213, 2-({2-[4-(difluoromethoxy)pyridin-2-yl]-5H,6H,7H-cyclopenta[d]pyrimidin-4-yl}(methyl)amino)-N-(1-methyl-1H-pyrazol-4-yl)acetamide]	6.4
C[C@H]1OC[C@@H]1Oc1ccnc(-c2nc3c(c(N(C)CC(=O)NC(C)(C)C)n2)CCC3)c1 (racemic) [Compound 333, N-tert-butyl-2-{methyl[2-(4-{[(2R,3S)-2-methyloxetan-3-yl]oxy}pyridin-2-yl)-5H,6H,7H-cyclopenta[d]pyrimidin-4-yl]amino}acetamide]	7.8
CC(C)NC(=O)CN(C)c1nc(-c2cc(OCCN(C)C)ccn2)nc2c1CCC2 [Compound 428, 2-[(2-{4-[2-(dimethylamino)ethoxy]pyridin-2-yl}-5H,6H,7H-cyclopenta[d]pyrimidin-4-yl)(methyl)amino]-N-(propan-2-yl)acetamide]	7.5
COc1ccc(N2CCN(c3nc(-c4ccccn4)nc4c3CCC4)CCC2=O)cc1 [Compound 203, 4-(4-methoxyphenyl)-1-[2-(pyridin-2-yl)-5H,6H,7H-cyclopenta[d]pyrimidin-4-yl]-1,4-diazepan-5-one]	6.3
c1nc(-c2nc3c(c(N4CCCCCC4)n2)CCC3)cs1 [Compound 94, 1-[2-(1,3-thiazol-4-yl)-5H,6H,7H-cyclopenta[d]pyrimidin-4-yl]azepane]	6.3
CN(CC(=O)N1CCCCC1)c1nc(-c2cc(OC3COC3)ccn2)nc2c1CCC2 [Compound 323, 2-[methyl({2-[4-(oxetan-3-yloxy)pyridin-2-yl]-5H,6H,7H-cyclopenta[d]pyrimidin-4-yl})amino]-1-(piperidin-1-yl)ethan-1-one]	7.5

From US11746100B2 (GLOBAL BLOOD THERAPEUTICS, INC., priority 2020, dated 2023)
